Common to all, as to experiment: NCI-60 cell line screen, 48 h
The subject of assay [1] is MCF7 breast.
The test system of assay [2] is HCT-15 colon.
The subject of assay [3] is PC-3 prostate.
For assay [4], the system named is K-562 leukemia.
For assay [5], the system named is OVCAR-4 ovarian.
Assay [6] relates to KM12 colon.
The subject of assay [7] is HOP-62 NSCLC.
Assay [8] concerns NCI-H226 lung.
Assay [9] deals with A498 renal.
Assay [10] has as its system HT29 colon.
Assay [11] relates to SK-OV-3 ovarian.
For assay [12], the system named is HCC-2998 colon.
For assay [13], the system named is HCT-116 colon.
Assay [14] has as its system IGROV1 ovarian.

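Compound exposure: 48 hours, 5 concentrations, 96-well plates. The concentration for full growth arrest is given as TGI.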

We go through 15 compounds from PubChem BioAssay (NCI).

On to `C=CC(=O)C#Cc1cnc(OC)nc1OC`, for which the TGI in [1] stood at 30.6 µM; in assay [2], 24.6 µM; in [3] it was 42 µM; in assay [4], 3.84 µM; in assay [5], 42.3 µM; in [6], 30 µM. In addition, the TGI in assay [7] was 45.7 µM; in assay [8], > 92.7 µM; in assay [9] it was > 69.1 µM; in [10], > 54.4 µM; in [11], > 100 µM; in assay [12], 42.2 µM. For the same compound, the TGI in assay [13] came to 26.1 µM; in [14] it was 53.6 µM.
Turning to `C#CCC(O)c1ccc(OC)c(OCc2ccccc2)c1` (stereo not given), the TGI in assay [1], in assay [2], in [3], in assay [4], in assay [5] and in [6] was > 100 µM in each case. The TGI in assay [7], in assay [8], in assay [9], in [10], in assay [11] and in assay [12] was > 100 µM throughout. For the same compound, the TGI in assay [13] and in assay [14] was > 100 µM throughout.
For `O=c1c2ccccc2nc(-c2ccccc2)n1/N=C/c1ccccc1[N+](=O)[O-]`, the TGI in assay [1], in [2], in [3], in assay [4], in [5] and in assay [6] was > 100 µM in each case. Moreover, the TGI in [7] was 37.1 µM; in [8] it was > 100 µM; in assay [9] it was > 100 µM; in assay [10], > 100 µM; in assay [11], > 100 µM; in [12], > 100 µM. The TGI in [13] and in assay [14] was > 100 µM in each case.
`O=C1NC(=Nc2ccccc2Cl)N/C1=C\c1c(Cl)cccc1Cl`: the TGI is > 100 µM in [1]; > 100 µM in assay [2]; 76.8 µM in assay [3]; > 100 µM in [4]; 49.3 µM in assay [5]; > 100 µM in [6]. In addition, the TGI was > 100 µM in [7]; > 100 µM in assay [8]; > 100 µM in assay [9]; > 100 µM in assay [10]; > 100 µM in [11]; 55.3 µM in assay [12]. For the same compound, the results for the TGI in assay [13] and in assay [14] were 67.1 µM and > 100 µM, respectively.
With `COC(=O)C1=C(C)NC(CF)=C(C(=O)OC)C1c1cccc2c(=O)c3ccccc3oc12` (stereo not given), the TGI was > 100 µM in assay [1]; > 100 µM in [2]; 8.57 µM in [3]; > 100 µM in assay [4]; > 100 µM in assay [5]; > 100 µM in assay [6]. The TGI in [7] was > 100 µM; in [8], > 100 µM; in assay [9], 94.5 µM; in [10], > 100 µM; in assay [11], > 100 µM; in assay [12], > 100 µM. Further, the TGI in assay [13] was > 100 µM; in [14], 18.9 µM.
Turning to `CCc1cccc(C(C)C)c1NC(=O)C(=O)Nn1c(=S)[nH]c2ccccc2c1=O`, the TGI in assay [1], in assay [2], in assay [3], in assay [4], in assay [5] and in [6] was > 100 µM throughout. Moreover, the TGI in [7], in [8], in assay [9], in assay [10], in assay [11] and in [12] was > 100 µM in each case. Besides, the TGI in assay [13] and in assay [14] was > 100 µM in each case.
Turning to `CC(=O)OC[C@@]1(C)[C@@H]2[C@@H]3[C@@]4(CO[C@]3(C)C(=O)[C@@]3(OC(C)=O)C[C@H](C)[C@H](OC(C)=O)[C@@H]3[C@H]4OC(C)=O)[C@H](OC(=O)c3ccccc3)C[C@@H]21`, the TGI in assay [1], in assay [2], in assay [3], in assay [4], in [5] and in [6] was > 100 µM throughout. The TGI in assay [7], in assay [8], in assay [9], in assay [10], in [11] and in assay [12] was > 100 µM each time. Besides, the TGI in assay [13] and in assay [14] was > 100 µM each time.
For `O=S(=O)(N=[Se](=O)(c1ccccc1)c1ccccc1)c1ccccc1`, the TGI in [1], in assay [2], in assay [3], in [4], in assay [5] and in [6] was > 100 µM each time. Besides, the TGI in assay [7], in [8], in assay [9], in [10], in [11] and in [12] was > 100 µM throughout. Moreover, the TGI in [13] and in [14] was > 100 µM each time.
For the compound `C#CC(O)/C=C/C(O)CCCC(O)CC#CC(O)C#CCCCCC(O)/C=C/CCCCCC(=O)CCCCCCCCCCCCCC(O)C(O)C#CC(=O)O` (stereo not given), the TGI in [1], in [2], in assay [3], in assay [4], in assay [5] and in assay [6] was > 25 µM throughout. Also, the TGI in assay [7], in assay [8], in assay [9], in assay [10], in assay [11] and in [12] was > 25 µM in each case. The TGI in [13] was > 25 µM; in [14] it was 9.59 µM.
With `O=C(CNc1ccc([N+](=O)[O-])cc1)Nn1c(-c2ccccc2)nc2ccccc2c1=O`, the TGI in assay [1] amounted to 7.08 µM; in assay [2] it was 7.64 µM; in [3], 13.2 µM; in assay [4], 5.52 µM; in [5] it was 10.3 µM; in [6], 15.9 µM. Also, the TGI in assay [7] came out at 16.5 µM; in [8], 25.2 µM; in [9] it was 19.3 µM; in [10] it was 13.6 µM; in assay [11] it was 14.9 µM; in assay [12], 22.6 µM. The TGI in assay [13] was determined as 13 µM; in assay [14], 12.9 µM.
Take `CC(=O)n1nc(-c2[nH]c(C)c(-c3nn(C(C)=O)c(=S)o3)c2C)oc1=S`: the TGI in assay [1], in [2], in [3], in assay [4], in assay [5] and in assay [6] was > 100 µM throughout. The TGI in [7], in [8], in assay [9], in assay [10], in [11] and in [12] was > 100 µM each time. In addition, the TGI in assay [13] and in assay [14] was > 100 µM each time.
For `COC(=O)c1ccccc1/C=C1\Cc2ccc3c(c2C1=O)CCC3`, the TGI in [1], in assay [2], in [3], in assay [4], in [5] and in assay [6] was > 100 µM throughout. Moreover, the TGI in assay [7], in assay [8], in assay [9], in assay [10], in assay [11] and in assay [12] was > 100 µM throughout. Besides, the TGI in [13] and in [14] was > 100 µM in each case.
As to `CC(=O)Nn1c(Cc2ccc(Cl)cc2)nn(C)c1=O`, the TGI in assay [1], in [2], in [3], in assay [4], in assay [5] and in assay [6] was > 100 µM in each case. Also, the TGI in assay [7], in assay [8], in assay [9], in assay [10], in assay [11] and in [12] was > 100 µM in each case. For the same compound, the TGI in assay [13] and in [14] was > 100 µM throughout.
For `OC(Cc1cnnc2ccccc12)C(Cl)(Cl)Cl` (stereo not given), the TGI in assay [1], in assay [2], in assay [3], in [4], in [5] and in [6] was > 10 µM throughout. Further, the TGI in assay [7], in [8], in [9], in assay [10], in assay [11] and in assay [12] was > 10 µM throughout. The TGI in [13] and in [14] was > 10 µM in each case.
With `NC(=S)NN=Cc1ccccc1OCc1cccc(COc2ccccc2C=NNC(N)=S)n1`, the TGI in assay [1], in assay [2], in assay [3], in assay [4], in assay [5] and in assay [6] was > 100 µM throughout. Besides, the TGI was 35.3 µM in [7]; > 89.6 µM in [8]; 47.7 µM in assay [9]; > 100 µM in assay [10]; 29.6 µM in assay [11]; > 100 µM in assay [12]. In addition, the TGI is > 93.6 µM in assay [13] and 31.6 µM in assay [14].
